According to patent US20240307401A1, “TREATMENT OF JAK-INHIBITION-RESPONSIVE DISORDERS WITH PRODRUGS OF JAK INHIBITORS” (SUN PHARMACEEUTICAL INDUSTRIES, INC., priority 2021, published 2024):

Tests used:
[1] = test system: patients suffering from alopecia areata; details: human clinical trials, at certain doses; cited from earlier work
[2] = In vitro conversion of Compound (I-1d) DBTA salt to CTP-543 under conditions similar to human stomach (0.1N HCl, 37° C.), HPLC analysis; format: physicochemical; details: for CTP-543 Concentration: 28.5 mg DBTA salt in 250 mL
Experimental: An in vitro study was conducted to test the conversion of the dibenzoyl-D-tartaric acid (DBTA) salt of Compound (I-1d) (a compound of Formula (I)) to CTP-543 (a compound of Formula (III)) when subjected to biologically-relevant conditions similar to human stomach conditions (0.1N hydrochloric acid, 37° C.).
Study Conditions: At 37° C., 28.5 mg of Compound (I-1d)·DBTA salt (equivalent to 14.6 mg of Compound (I-1d)) was added to 250 mL of 0.1N HCl while stirring. Samples were removed via syringe at 30, 60, 120 and 240 minutes, (times relevant to potential human gastric residence time), then were filtered through a syringe filter and analyzed by HPLC.

| % Conversion to CTP-543 ([2]; 30 min) [%] | CTP-543 Concentration ([2]; 30 min) [mg/mL] | % Conversion to CTP-543 ([2]; 60 min) [%] | CTP-543 Concentration ([2]; 60 min) [mg/mL] | % Conversion to CTP-543 ([2]; 120 min) [%] | CTP-543 Concentration ([2]; 120 min) [mg/mL] | % Conversion to CTP-543 ([2]; 240 min) [%] | CTP-543 Concentration ([2]; 240 min) [mg/mL] | SMILES | Hair growth in patients suffering from alopecia areata [1] |
| --- | --- | --- | --- | --- | --- | --- | --- | --- | --- |
| – | – | – | – | – | – | – | – | [2H]C1([2H])C([C@@H](CC#N)n2cc(-c3ncnc4[nH]ccc34)cn2)C([2H])([2H])C([2H])([2H])C1([2H])[2H] [CTP-543, (R)-3-(4-(7H-pyrrolo[2,3-d]pyrimidin-4-yl)-1H-pyrazol-1-yl)-3-(cyclopentyl-2,2,3,3,4,4,5,5-d8)propanenitrile] | shown to stimulate hair growth |
| 8 | 0.004 | 10 | 0.005 | 16 | 0.008 | 22 | 0.011 | [2H]C1([2H])C([C@@H](CC#N)n2cc(-c3ncnc(N)c3CC(OC)OC)cn2)C([2H])([2H])C([2H])([2H])C1([2H])[2H] [Compound (I-1d)] | – |
